Our source for the IC50 values is patent US20260070927A1, “INDAZOLE MACROCYCLES FOR THE TREATMENT OF AUTOIMMUNE DISEASE” (Hoffmann-La Roche Inc., priority 2022, published 2026).

Experiment [1] concerns the target human stimulator of interferon genes (STING) (139-379) (Homo sapiens (Human), UniProt Q86WV6). The experiment in a line: Microliter plate-based TR-FRET competition-binding assay for binders of STING. The settings on record: Alexa488 probe, read-out: FRET_IC50. How it is done:
This is the competition-binding assay to test the compounds' potency to the C-terminal Domain (CTD) and ligand-binding domain of human stimulator of interferon genes (STING). STING (139-379, Q86WV6, http://www.uniprot.org/uniprot) recombinant protein (in 20 mM Tris, 150 mM NaCl, pH 8.0, and expression in Escherichia coli (E. coli) BL21 (DE3)) with a C-terminal flag-tag was employed for the assay. When Alexa-488 labeled active site probe (refer to patent WO2017/175156 A1) bounds to STING (139-379), it accepts the 485 nm emission from Tb-M2-Flag-STING and results in an increase in fluorescence at 520 nm. Compounds that compete for the probe-binding site will reduce 520 nm signal. The assay was run in proxiplate-384 plus (PerkinElmer, cat: 60150300) containing of 2.5 nM STING, 2.5 nM M2-Tb (Cisbio, 61FG2TLA, Lot: 17 A) and 250 nM Alexa488 probe. Plates were centrifuged for 1 min at 1000 rpm, incubated for 30 min at room temperature, and then measured the dual fluorescence emission at 520 nm/485 nM following 320 nm laser excitation on an Envision plate reader (Perkin-Elmer). The compounds' effect on the STING binding is detected by measuring ratiometric fluorescence from time-resolved FRET. The percentage of inhibition of at each compound concentration is calculated on the basis of their changes of TR-FRET efficiency relative to the change of TR-FRET caused by positive control 2′3′cGAMP (Sigma, cat: SML1229).
In general terms: TR-FRET usually uses a lanthanide donor and a delayed reading to cut background.

For the next experiment, the system named is STING (IFN-β in hPBMC). The experiment in a line: hPBMC cytokine functional assay (IFN-β decrease after Baculovirus stimulation). The format is cell-based. The settings on record: Homo sapiens, Baculovirus MOI 40, 24 hours, read-out: hPBMC_IC50. How it is done:
The inhibition of STING by compounds could be measured by the decrease of IFN-β in hPBMC, which is stimulated by a double stranded DNA virus Baculoviurs (Purchased from Genescript, pCMV-Dest Vector virus generation P2 BV stock virus, Sf-900 II medium with 5% FBS, Lot C9835DK230-2/P4DL001). Frozen hPBMC cells (purchased from Stemcell Technologies, cat number is 70025, Lot 191070803C) were thawed at 37° C. water bath, then cells were re-suspended in 50 ml tube using 20 ml Cell culture medium, and then centrifuged for 5 min at 2000 rpm before the supernatant was removed carefully. The cells were re-suspended in culture medium (RPMI-1640 with 1.5 g/L NaHCO3, 4.5 g/L glucose, 10 mM HEPES and 1 mM Na-pyruvate, 10% HI-FBS); 65 μL of the cell suspension was dispensed into 384 well plate (70K cells/well) by Multidrop Combi with at least 3 hours incubation at 37° C., 5% CO2 cell incubator.
Then 4 μL of compound solution per well (final 0.5% DMSO) was transferred by Agilent Bravo followed by infection with 11 μL of Baculovirus at a final MOI of 40. The level of IFN-β secreted in the supernatant of hPBMC was determined after 24 hours of incubation at 37° C. cell incubator by human IFN-β HTRF assay (Cisbio, cat: 62HIFNBPEH) following the manufacture's instruction. CellTiter-Glo kit (Promega, cat: G7573) was applied for the cell viability evaluation using Envision.

human stimulator of interferon genes (STING) (139-379), sequence (Q86WV6 139-379): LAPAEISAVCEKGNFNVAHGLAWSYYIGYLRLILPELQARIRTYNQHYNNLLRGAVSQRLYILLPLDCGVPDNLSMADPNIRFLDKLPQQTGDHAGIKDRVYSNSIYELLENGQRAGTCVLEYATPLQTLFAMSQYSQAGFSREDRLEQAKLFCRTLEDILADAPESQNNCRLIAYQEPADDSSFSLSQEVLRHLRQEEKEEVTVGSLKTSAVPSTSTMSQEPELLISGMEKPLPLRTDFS

For the compound `Cn1nc2cccc3c2c1CCCNC(=O)[C@@H]1C[C@@H](CN1c1ncnc2c1cnn2-c1ccc(F)cc1F)Oc1cccc-3c1` [Example 1, (8S,11S)-10-[1-(2,4-difluorophenyl)pyrazolo[3,4-d]pyrimidin-4-yl]-18-methyl-7-oxa-10,13,18,19-tetrazapentacyclo[15.6.1.1^2,6.1^8,11.0^20,24]hexacosa-1(23),2(26),3,5,17(24),19,21-heptaen-12-one], the IC50 in experiment [1] worked out at 0.8 nM; in the experiment with STING (IFN-β in hPBMC), 486 nM.
As for `CN1CCCc2c3c(cccc3nn2C)-c2cccc(c2)O[C@H]2C[C@@H](C1=O)N(c1ncnc3c1cnn3-c1ccc(F)cc1F)C2` [Example 2, (8S,11S)-10-[1-(2,4-difluorophenyl)pyrazolo[3,4-d]pyrimidin-4-yl]-13,18-dimethyl-7-oxa-10,13,18,19-tetrazapentacyclo[15.6.1.1^2,6.1^8,11.0^20,24]hexacosa-1(23),2(26),3,5,17(24),19,21-heptaen-12-one], the IC50 was 2.7 nM in experiment [1] and 594 nM with STING (IFN-β in hPBMC).
Turning to `CN1CCCc2c3c(cccc3nn2C)-c2cccc(n2)N[C@H]2C[C@@H](C1=O)N(c1ncnc3c1cnn3-c1ccc(F)cc1F)C2` [Example 3, (8S,11S)-10-[1-(2,4-difluorophenyl)pyrazolo[3,4-d]pyrimidin-4-yl]-13,18-dimethyl-7,10,13,18,19,26-hexazapentacyclo[15.6.1.1^2,6.1^8,11.0^20,24]hexacosa-1(23),2(26),3,5,17(24),19,21-heptaen-12-one], the IC50 in experiment [1] worked out at 0.6 nM; in the experiment on STING (IFN-β in hPBMC) it was 288 nM.
Take `CN1CCCc2c3c(cccc3nn2C)-c2ccnc(n2)N[C@H]2C[C@@H](C1=O)N(c1nccn3c(-c4ccc(F)cc4F)ncc13)C2` [Example 5, (8S,11S)-10-[3-(2,4-difluorophenyl)imidazo[1,5-a]pyrazin-8-yl]-13,18-dimethyl-5,7,10,13,18,19,26-heptazapentacyclo[15.6.1.1^2,6.1^8,11.0^20,24]hexacosa-1(23),2,4,6(26),17(24),19,21-heptaen-12-one]: the results for the IC50 (in experiment [1]; in the experiment with STING (IFN-β in hPBMC)) were 3.8 nM and 308 nM, respectively.
In the case of `COc1cc2nc(c1)-c1cccc3nn(C)c(c13)CCCN(C)C(=O)[C@@H]1C[C@@H](CN1c1ncnc3c1cnn3-c1ccc(F)cc1F)N2` [Example 13, (8S,11S)-10-[1-(2,4-difluorophenyl)pyrazolo[3,4-d]pyrimidin-4-yl]-4-methoxy-13,18-dimethyl-7,10,13,18,19,26-hexazapentacyclo[15.6.1.1^2,6.1^8,11.0^20,24]hexacosa-1(23),2,4,6(26),17(24),19,21-heptaen-12-one], the figures for the IC50 (in experiment [1]; in the experiment on STING (IFN-β in hPBMC)) were 4.7 nM and 224 nM, respectively.
With `COc1cc2nc(c1)-c1cccc3nn(C)c(c13)CCCN(C)C(=O)[C@@H]1C[C@@H](CN1c1ncnc3c1cnn3-c1ccc(F)cc1OC)N2` [Example 14, (8S,11S)-10-[1-(4-fluoro-2-methoxy-phenyl)pyrazolo[3,4-d]pyrimidin-4-yl]-4-methoxy-13,18-dimethyl-7,10,13,18,19,26-hexazapentacyclo[15.6.1.1^2,6.1^8,11.0^20,24]hexacosa-1(23),2,4,6(26),17(24),19,21-heptaen-12-one], the IC50 in experiment [1] is 4.8 nM; in the experiment with STING (IFN-β in hPBMC), 255 nM.
Regarding `Cn1nc2cccc3c2c1CCCN(CC1CC1)C(=O)[C@@H]1C[C@@H](CN1c1ncnc2c1cnn2-c1ccc(F)cc1F)Oc1cccc-3c1` [Example 15, (8S,11S)-13-(cyclopropylmethyl)-10-[1-(2,4-difluorophenyl)pyrazolo[3,4-d]pyrimidin-4-yl]-18-methyl-7-oxa-10,13,18,19-tetrazapentacyclo[15.6.1.1^2,6.1^8,11.0^20,24]hexacosa-1(23),2(26),3,5,17(24),19,21-heptaen-12-one], the results for the IC50 (in experiment [1]; with STING (IFN-β in hPBMC)) were 1.6 nM and 140 nM, respectively.
Consider `Cn1nc2cccc3c2c1CCCN(Cc1cscn1)C(=O)[C@@H]1C[C@@H](CN1c1ncnc2c1cnn2-c1ccc(F)cc1F)Oc1cccc-3c1` [Example 17, (8S,11S)-10-[1-(2,4-difluorophenyl)pyrazolo[3,4-d]pyrimidin-4-yl]-18-methyl-13-(thiazol-4-ylmethyl)-7-oxa-10,13,18,19-tetrazapentacyclo[15.6.1.1^2,6.1^8,11.0^20,24]hexacosa-1(23),2(26),3,5,17(24),19,21-heptaen-12-one], for which, in experiment [1], the IC50 is 2.2 nM.
Turning to `C=CCN1CCCc2c3c(cccc3nn2C)-c2cccc(c2)O[C@H]2C[C@@H](C1=O)N(c1ncnc3c1cnn3-c1ccc(F)cc1F)C2` [Example 20, (8S,11S)-13-allyl-10-[1-(2,4-difluorophenyl)pyrazolo[3,4-d]pyrimidin-4-yl]-18-methyl-7-oxa-10,13,18,19-tetrazapentacyclo[15.6.1.1^2,6.1^8,11.0^20,24]hexacosa-1(23),2(26),3,5,17(24),19,21-heptaen-12-one], the IC50 in experiment [1] came out at 1.9 nM; in the experiment on STING (IFN-β in hPBMC), 346 nM.
For the compound `COCCN1CCCc2c3c(cccc3nn2C)-c2cccc(c2)O[C@H]2C[C@@H](C1=O)N(c1ncnc3c1cnn3-c1ccc(F)cc1F)C2` [Example 21, (8S,11S)-10-[1-(2,4-difluorophenyl)pyrazolo[3,4-d]pyrimidin-4-yl]-13-(2-methoxyethyl)-18-methyl-7-oxa-10,13,18,19-tetrazapentacyclo[15.6.1.1^2,6.1^8,11.0^20,24]hexacosa-1(23),2(26),3,5,17(24),19,21-heptaen-12-one], the IC50 in experiment [1] was 2 nM; in the experiment on STING (IFN-β in hPBMC), 380 nM.
Regarding `Cn1nc2cccc3c2c1CCCN(CCN1CCOCC1)C(=O)[C@@H]1C[C@@H](CN1c1ncnc2c1cnn2-c1ccc(F)cc1F)Oc1cccc-3c1` [Example 23, (8S,11S)-10-[1-(2,4-difluorophenyl)pyrazolo[3,4-d]pyrimidin-4-yl]-18-methyl-13-(2-morpholinoethyl)-7-oxa-10,13,18,19-tetrazapentacyclo[15.6.1.1^2,6.1^8,11.0^20,24]hexacosa-1(23),2(26),3,5,17(24),19,21-heptaen-12-one], the IC50 in experiment [1] was 1.6 nM; in the experiment on STING (IFN-β in hPBMC), 279 nM.
Turning to `Cn1nc2cc(F)cc3c2c1CCCN(CCN1CCOCC1)C(=O)[C@@H]1C[C@@H](CN1c1ncnc2c1cnn2-c1ccc(F)cc1F)Oc1cccc-3c1` [Example 25, (8S,11S)-10-[1-(2,4-difluorophenyl)pyrazolo[3,4-d]pyrimidin-4-yl]-22-fluoro-18-methyl-13-(2-morpholinoethyl)-7-oxa-10,13,18,19-tetrazapentacyclo[15.6.1.1^2,6.1^8,11.0^20,24]hexacosa-1(23),2(26),3,5,17(24),19,21-heptaen-12-one], the IC50 in experiment [1] worked out at 18.4 nM; in the experiment on STING (IFN-β in hPBMC), 549 nM.
On to `Cn1nc2cccc3c2c1CCCN(CCCn1cncn1)C(=O)[C@@H]1C[C@@H](CN1c1ncnc2c1cnn2-c1ccc(F)cc1F)Oc1cccc-3c1` [Example 37, (8S,11S)-10-[1-(2,4-difluorophenyl)pyrazolo[3,4-d]pyrimidin-4-yl]-18-methyl-13-[3-(1,2,4-triazol-1-yl)propyl]-7-oxa-10,13,18,19-tetrazapentacyclo[15.6.1.1^2,6.1^8,11.0^20,24]hexacosa-1(23),2(26),3,5,17(24),19,21-heptaen-12-one], for which the IC50 in experiment [1] is 1.5 nM.
The same measure, in the same setting: to `COCCOCCCN1CCCc2c3c(cccc3nn2C)-c2cccc(c2)O[C@H]2C[C@@H](C1=O)N(c1ncnc3c1cnn3-c1ccc(F)cc1F)C2` [Example 39, (8S,11S)-10-[1-(2,4-difluorophenyl)pyrazolo[3,4-d]pyrimidin-4-yl]-13-[3-(2-methoxyethoxy)propyl]-18-methyl-7-oxa-10,13,18,19-tetrazapentacyclo[15.6.1.1^2,6.1^8,11.0^20,24]hexacosa-1(23),2(26),3,5,17(24),19,21-heptaen-12-one] belongs 5.5 nM.
